In PubChem BioAssay AID256 (DTP/NCI, 2004):
Several values for one entry are separate records, joined by “and”; a condition that tells them apart may be missing. Equal values may be shown once. Toxic doses and inconclusive results are not listed. Rule for the calls: active = survival T/C of 150% or more; inactive = T/C below 125% in these data.

Tested on: CD2F1 mice, L1210 leukemia ip, survival T/C
Assay: NCI In Vivo Anticancer Drug Screen. Data for tumor model L1210 Leukemia (intraperitoneal) in CD2F1 (CDF1) mice
Settings: higher = longer survival
Summary of the method: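 Transplantable tumor in mice; compound-treated vs vehicle-treated groups. Read-out = treated/control ratio of the measured endpoint.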

[1] = endpoint: mean survival time, dose: 100.0 mg/kg/injection, schedule: Q04DX003 (ip), vehicle: saline with Tween-80
[2] = endpoint: mean survival time, dose: 200.0 mg/kg/injection, schedule: Q04DX003 (ip), vehicle: saline with Tween-80
[3] = endpoint: mean survival time, dose: 50.0 mg/kg/injection, schedule: Q01DX009 (ip), vehicle: saline with Tween-80
[4] = endpoint: mean survival time, dose: 200.0 mg/kg/injection, schedule: Q01DX009 (ip), vehicle: saline with Tween-80
[5] = endpoint: mean survival time, dose: 400.0 mg/kg/injection, schedule: Q01DX009 (ip), vehicle: saline with Tween-80
[6] = endpoint: mean survival time, dose: 400.0 mg/kg/injection, schedule: Q04DX003 (ip), vehicle: saline with Tween-80
[7] = endpoint: mean survival time, dose: 100.0 mg/kg/injection, schedule: Q01DX009 (ip), vehicle: saline with Tween-80
[8] = endpoint: mean survival time, dose: 50.0 mg/kg/injection, schedule: Q04DX002 (ip), vehicle: saline with Tween-80
[9] = endpoint: mean survival time, dose: 100.0 mg/kg/injection, schedule: Q04DX002 (ip), vehicle: saline with Tween-80
[10] = endpoint: mean survival time, dose: 200.0 mg/kg/injection, schedule: Q04DX002 (ip), vehicle: saline with Tween-80
[11] = endpoint: mean survival time, dose: 100.0 mg/kg/injection, schedule: Q01DX001 (ip), vehicle: saline
[12] = endpoint: mean survival time, dose: 200.0 mg/kg/injection, schedule: Q01DX001 (ip), vehicle: saline
[13] = endpoint: mean survival time, dose: 400.0 mg/kg/injection, schedule: Q01DX001 (ip), vehicle: saline

Measured: T/C

O=C(OCC1OC(n2cnc3c(=O)[nH][nH]c(=O)c32)C(OC(=O)c2ccccc2)C1OC(=O)c1ccccc1)c1ccccc1 (configuration not stated)
inactive: endpoint: median survival time, dose: 8.25 mg/kg/injection, schedule: Q01DX005 (ip), vehicle: Klucel (hydroxypropylcellulose) (HPC) 104 % of control | endpoint: median survival time, dose: 16.5 mg/kg/injection, schedule: Q01DX005 (ip), vehicle: Klucel (hydroxypropylcellulose) (HPC) 98 % of control | endpoint: median survival time, dose: 33.0 mg/kg/injection, schedule: Q01DX005 (ip), vehicle: Klucel (hydroxypropylcellulose) (HPC) 97 % of control | endpoint: median survival time, dose: 66.0 mg/kg/injection, schedule: Q01DX005 (ip), vehicle: Klucel (hydroxypropylcellulose) (HPC) 101 % of control | endpoint: median survival time, dose: 132.0 mg/kg/injection, schedule: Q01DX005 (ip), vehicle: Klucel (hydroxypropylcellulose) (HPC) 102 % of control

CN(Cc1ccc[n+](Cc2ccc(S(=O)(=O)F)cc2)c1)C(=O)COc1ccc(Cl)c(Cl)c1
inactive: [1] 98 % of control | [2] 96 % of control

CCC[CH2][Sn]1([CH2]CCC)[O]C(=O)c2c(Cl)c(Cl)c(Cl)c(Cl)c2C(=O)[O]1
inactive: endpoint: mean survival time, dose: 5.0 mg/kg/injection, schedule: Q01DX001 (ip), vehicle: saline 101 % of control | endpoint: mean survival time, dose: 10.0 mg/kg/injection, schedule: Q01DX001 (ip), vehicle: saline 101 % of control | endpoint: mean survival time, dose: 20.0 mg/kg/injection, schedule: Q01DX001 (ip), vehicle: saline 109 % of control

O=C(Nc1nncs1)c1ccncc1
inactive: endpoint: mean survival time, dose: 12.5 mg/kg/injection, schedule: Q01DX009 (ip), vehicle: saline with Tween-80 95 % of control and 112 % of control | endpoint: mean survival time, dose: 25.0 mg/kg/injection, schedule: Q01DX009 (ip), vehicle: saline with Tween-80 115 % of control and 92 % of control | [3] 103 % of control | [4] 123 % of control and 94 % of control | [5] 110 % of control

O=C(O)/C=C/C(=O)Nc1ccc(N=Nc2ccccc2)cc1
inactive: [1] 93 % of control | [2] 98 % of control

CC(CC(=O)Nc1ccccc1)C(=O)O (configuration not stated)
inactive: [1] 103 % of control | [2] 101 % of control | [6] 106 % of control

COc1cc(OC)c(NC(=O)OCCSc2ccc(Cl)cc2)cc1Cl
inactive: [3] 92 % of control | [7] 92 % of control | [4] 92 % of control

CC(=O)OCC1OC(n2ncnc2CBr)C(OC(C)=O)C(OC(C)=O)C1OC(C)=O (configuration not stated)
inactive: endpoint: median survival time, dose: 12.5 mg/kg/injection, schedule: Q01DX005 (ip), vehicle: distilled water + Tween-80 108 % of control | endpoint: median survival time, dose: 25.0 mg/kg/injection, schedule: Q01DX005 (ip), vehicle: distilled water + Tween-80 97 % of control | endpoint: median survival time, dose: 50.0 mg/kg/injection, schedule: Q01DX005 (ip), vehicle: distilled water + Tween-80 104 % of control

CCOC(=O)CCl
inactive: endpoint: mean survival time, dose: 100.0 mg/kg/injection, schedule: Q04DX003 (ip), vehicle: other 95 % of control | endpoint: mean survival time, dose: 200.0 mg/kg/injection, schedule: Q04DX003 (ip), vehicle: other 90 % of control

CCCCc1ccc(N=C(N)N=C(N)N)cc1
inactive: endpoint: mean survival time, dose: 9.5 mg/kg/injection, schedule: Q01DX001 (ip), vehicle: other 103 % of control | endpoint: mean survival time, dose: 19.0 mg/kg/injection, schedule: Q01DX001 (ip), vehicle: other 94 % of control | endpoint: mean survival time, dose: 38.0 mg/kg/injection, schedule: Q01DX001 (ip), vehicle: other 91 % of control

CC1=CC=CC(C)(C(Cl)Cl)C1=O (configuration not stated)
inactive: [3] 97 % of control | [7] 89 % of control | [1] 96 % of control | [2] 103 % of control | endpoint: mean survival time, dose: 1200.0 mg/kg/injection, schedule: Q01DX009 (ip), vehicle: saline with Tween-80 93 % of control

NC(=O)c1ncn(C2OC(CO)C(O)C2O)c1C(N)=O (configuration not stated)
inactive: endpoint: mean survival time, dose: 12.5 mg/kg/injection, schedule: Q01DX005 (ip), vehicle: water 102 % of control | endpoint: mean survival time, dose: 25.0 mg/kg/injection, schedule: Q01DX005 (ip), vehicle: water 112 % of control | endpoint: mean survival time, dose: 50.0 mg/kg/injection, schedule: Q01DX005 (ip), vehicle: water 107 % of control | endpoint: mean survival time, dose: 100.0 mg/kg/injection, schedule: Q01DX005 (ip), vehicle: water 104 % of control | endpoint: mean survival time, dose: 200.0 mg/kg/injection, schedule: Q01DX005 (ip), vehicle: water 112 % of control

CCCCC(CC)C(O)CC(O)CC (configuration not stated)
inactive: [1] 92 % of control | [2] 91 % of control | [6] 91 % of control

COc1ccc(C(O)(c2ccccc2)C(O)c2ccccc2)cc1 (configuration not stated)
inactive: endpoint: mean survival time, dose: 12.5 mg/kg/injection, schedule: Q04DX002 (ip), vehicle: saline with Tween-80 93 % of control | endpoint: mean survival time, dose: 25.0 mg/kg/injection, schedule: Q04DX002 (ip), vehicle: saline with Tween-80 86 % of control | [8] 86 % of control | [1] 93 % of control | [2] 87 % of control | [6] 94 % of control and 89 % of control

O=C1CSC(=S)N1/N=C/c1ccc(Cl)c(Cl)c1
inactive: endpoint: mean survival time, dose: 1.56 mg/kg/injection, schedule: Q01DX009 (ip), vehicle: saline with Tween-80 97 % of control | endpoint: mean survival time, dose: 3.13 mg/kg/injection, schedule: Q01DX009 (ip), vehicle: saline with Tween-80 100 % of control | endpoint: mean survival time, dose: 6.25 mg/kg/injection, schedule: Q01DX009 (ip), vehicle: saline with Tween-80 91 % of control | endpoint: mean survival time, dose: 6.25 mg/kg/injection, schedule: Q04DX003 (ip), vehicle: saline with Tween-80 100 % of control

COc1cc(Cc2nc(Cl)cc(Cl)n2)cc(OC)c1OC
inactive: [7] 105 % of control | [1] 95 % of control | [4] 97 % of control | [2] 93 % of control | [5] 103 % of control | [6] 97 % of control

ClCCOC(c1ccc(Cl)cc1)c1ccc(Cl)cc1
inactive: endpoint: mean survival time, dose: 100.0 mg/kg/injection, schedule: Q04DX003 (ip), vehicle: saline + alcohol 96 % of control | endpoint: mean survival time, dose: 200.0 mg/kg/injection, schedule: Q04DX003 (ip), vehicle: saline + alcohol 94 % of control | endpoint: mean survival time, dose: 400.0 mg/kg/injection, schedule: Q04DX003 (ip), vehicle: saline + alcohol 100 % of control

O=C1Nc2ccccc2/C1=C/c1c[nH]c2ccccc12
inactive: [8] 103 % of control | [9] 90 % of control | [10] 107 % of control

CSC1=NCCN1
inactive: endpoint: mean survival time, dose: 100.0 mg/kg/injection, schedule: Q04DX003 (ip), vehicle: saline 97 % of control | endpoint: mean survival time, dose: 200.0 mg/kg/injection, schedule: Q04DX003 (ip), vehicle: saline 97 % of control | endpoint: mean survival time, dose: 400.0 mg/kg/injection, schedule: Q04DX003 (ip), vehicle: saline 91 % of control

CC(=O)NNC(=O)c1ccccc1
inactive: endpoint: mean survival time, dose: 50.0 mg/kg/injection, schedule: Q01DX009 (ip), vehicle: other 95 % of control and 105 % of control | endpoint: mean survival time, dose: 100.0 mg/kg/injection, schedule: Q01DX009 (ip), vehicle: other 97 % of control and 108 % of control | endpoint: mean survival time, dose: 200.0 mg/kg/injection, schedule: Q01DX009 (ip), vehicle: other 93 % of control and 97 % of control | endpoint: mean survival time, dose: 300.0 mg/kg/injection, schedule: Q01DX009 (ip), vehicle: other 90 % of control

CC(C)(CCC#N)C(=O)c1ccccc1
inactive: [9] 94 % of control | [10] 102 % of control

COc1ccc(OCCC(=O)O)cc1
inactive: endpoint: mean survival time, dose: 50.0 mg/kg/injection, schedule: Q01DX009 (ip), vehicle: saline 119 % of control | endpoint: mean survival time, dose: 100.0 mg/kg/injection, schedule: Q01DX009 (ip), vehicle: saline 105 % of control | endpoint: mean survival time, dose: 200.0 mg/kg/injection, schedule: Q01DX009 (ip), vehicle: saline 105 % of control

Nc1cc(N)nc(N)n1
inactive: endpoint: mean survival time, dose: 100.0 mg/kg/injection, schedule: Q01DX001 (ip), vehicle: saline with Tween-80 103 % of control | endpoint: mean survival time, dose: 200.0 mg/kg/injection, schedule: Q01DX001 (ip), vehicle: saline with Tween-80 105 % of control

O=C(c1ccccc1)C(C(c1ccc([N+](=O)[O-])cc1)N1CCOCC1)N1CCOCC1 (configuration not stated)
inactive: [7] 97 % of control | [1] 101 % of control | [4] 96 % of control | [2] 101 % of control | [5] 96 % of control | [6] 108 % of control

Cc1nc(-c2ccccc2)c(Cc2ccccc2O)c(=O)[nH]1
inactive: [11] 97 % of control | [12] 97 % of control | [13] 100 % of control

CC#CN(CC)CC
inactive: endpoint: mean survival time, dose: 75.0 mg/kg/injection, schedule: Q01DX001 (ip), vehicle: saline 105 % of control | endpoint: mean survival time, dose: 150.0 mg/kg/injection, schedule: Q01DX001 (ip), vehicle: saline 106 % of control

S=[As]c1ccccc1 (configuration not stated)
inactive: [11] 100 % of control | [12] 97 % of control | [13] 107 % of control

CN=C(N)c1ccc(N=C(N)c2ccc(C(N)=Nc3ccc(C(N)=NC)cc3)cc2)cc1
inactive: endpoint: median survival time, dose: 3.75 mg/kg/injection, schedule: Q08HX018 (ip), vehicle: water 117 % of control | endpoint: median survival time, dose: 10.0 mg/kg/injection, schedule: Q01DX001 (iv), vehicle: saline 95 % of control | endpoint: median survival time, dose: 10.0 micrograms per hour, schedule: Q#X X001 (iv), vehicle: saline 97 % of control
